Data reported in ChEMBL document CHEMBL5634084, “Design and optimization of selective and potent CDK9 inhibitors with flavonoid scaffold for the treatment of acute myeloid leukemia” (Eur J Med Chem, 2023).

Experiments:
[1] = tested on: MV4-11; test: Induction of apoptosis in human MV4-11 cells assessed as increase in cleaved caspase 3 protein expression incubated for 24 hrs by western blot analysis; type: functional, cell-based; conditions: dose 0.1-4 µM
[2] = molecular target: NUAK family SNF1-like kinase 2 (Homo sapiens) (UniProt Q9H093); test: Inhibition of wild type partial length human SNARK (22 to 333 residues) expressed in mammalian expression system at 1 uM by KINOMEscan analysis
Chain of NUAK family SNF1-like kinase 2 (Homo sapiens) (Q9H093 whole entry, the tested form may be a part): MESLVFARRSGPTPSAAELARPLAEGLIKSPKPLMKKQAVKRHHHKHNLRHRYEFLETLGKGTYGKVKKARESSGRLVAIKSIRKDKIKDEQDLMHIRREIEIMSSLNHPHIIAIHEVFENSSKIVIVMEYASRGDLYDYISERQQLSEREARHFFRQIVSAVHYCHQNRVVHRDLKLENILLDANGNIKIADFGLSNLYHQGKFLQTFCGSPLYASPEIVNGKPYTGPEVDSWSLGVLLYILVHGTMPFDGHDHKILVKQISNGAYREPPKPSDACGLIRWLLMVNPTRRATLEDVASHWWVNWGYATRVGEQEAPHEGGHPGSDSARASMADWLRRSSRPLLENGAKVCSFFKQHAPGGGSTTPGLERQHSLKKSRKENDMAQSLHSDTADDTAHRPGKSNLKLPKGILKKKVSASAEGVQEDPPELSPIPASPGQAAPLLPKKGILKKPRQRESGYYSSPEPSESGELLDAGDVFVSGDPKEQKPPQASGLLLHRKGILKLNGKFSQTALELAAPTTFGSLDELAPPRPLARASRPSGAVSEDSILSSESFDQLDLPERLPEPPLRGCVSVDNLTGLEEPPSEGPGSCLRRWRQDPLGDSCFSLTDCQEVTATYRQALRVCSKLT

[3] = tested on: MV4-11; test: Induction of apoptosis in human MV4-11 cells assessed as viable cells at 2 uM incubated for 24 hrs by AnnexinV-FITC/PI staining based flow cytometry (reference value: 93.4%); type: functional; conditions: read-out: Activity
[4] = Metabolic stability of the compound in mouse liver microsomes at 10 uM measured for 60 mins in presence of NADPH by LC-MS/MS analysis; type: ADME, Microsome; conditions: 1 h
[5] = molecular target: Cyclin-dependent kinase 7 (Homo sapiens) (UniProt P50613); test: Inhibition of wild type full length human CDK7 (1 to 344 esidues) expessed in mammalian expression system at 1 uM by KINOMEscan analysis
Chain of Cyclin-dependent kinase 7 (Homo sapiens) (P50613 whole entry): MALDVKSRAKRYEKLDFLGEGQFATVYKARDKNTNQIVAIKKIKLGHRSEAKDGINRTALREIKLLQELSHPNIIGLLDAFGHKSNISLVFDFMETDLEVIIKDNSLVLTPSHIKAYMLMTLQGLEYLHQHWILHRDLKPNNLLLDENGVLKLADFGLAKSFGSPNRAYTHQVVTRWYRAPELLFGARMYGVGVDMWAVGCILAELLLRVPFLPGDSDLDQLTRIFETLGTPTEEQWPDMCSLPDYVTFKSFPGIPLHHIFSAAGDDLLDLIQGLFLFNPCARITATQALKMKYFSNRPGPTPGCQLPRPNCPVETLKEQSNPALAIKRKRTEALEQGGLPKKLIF

[6] = molecular target: Cyclin-dependent kinase 4/cyclin D1 (Homo sapiens, UniProt P11802); test: Inhibition of CDK4/CyclinD1 (unknown origin) by ADP-Glo assay; type: protein-complex assay
Chain of Cyclin-dependent kinase 4/cyclin D1 (P11802 whole entry): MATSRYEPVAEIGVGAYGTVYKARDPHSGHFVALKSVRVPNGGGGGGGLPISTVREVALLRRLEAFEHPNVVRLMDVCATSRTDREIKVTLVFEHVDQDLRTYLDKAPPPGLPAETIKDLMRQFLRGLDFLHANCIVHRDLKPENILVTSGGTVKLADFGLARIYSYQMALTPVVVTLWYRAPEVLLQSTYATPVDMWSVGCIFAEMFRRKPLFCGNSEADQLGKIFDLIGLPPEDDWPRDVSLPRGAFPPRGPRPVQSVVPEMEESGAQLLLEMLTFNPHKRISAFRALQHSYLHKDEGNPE
Chain of Cyclin-dependent kinase 4/cyclin D1 (P24385 whole entry, further chain): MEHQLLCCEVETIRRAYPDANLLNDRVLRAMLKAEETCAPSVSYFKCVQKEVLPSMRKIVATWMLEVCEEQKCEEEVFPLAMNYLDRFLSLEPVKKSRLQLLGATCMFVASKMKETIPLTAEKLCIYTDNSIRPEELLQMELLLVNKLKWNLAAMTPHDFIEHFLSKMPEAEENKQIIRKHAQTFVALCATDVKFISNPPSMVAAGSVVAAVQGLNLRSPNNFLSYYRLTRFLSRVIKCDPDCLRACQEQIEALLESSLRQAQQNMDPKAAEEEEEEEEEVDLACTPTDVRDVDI

[7] = tested on: MV4-11; test: Induction of cell cycle arrest in human MV4-11 cells assessed as accumulation of cells at G2/M phase at 0.8 uM incubated fo 36 hrs by propidium iodide staining based flow cytometry (reference value: 9.5%); type: functional
[8] = tested on: MV4-11; test: Induction of apoptosis in human MV4-11 cells assessed as necrotic cells at 0.1 uM incubated for 24 hrs by AnnexinV-FITC/PI staining based flow cytometry (reference value: 0%); type: functional
[9] = tested on: MV4-11; test: Induction of cell cycle arrest in human MV4-11 cells assessed as accumulation of cells at G2/M phase at 0.4 uM incubated fo 36 hrs by propidium iodide staining based flow cytometry (reference value: 9.5%); type: functional
[10] = tested on: MV4-11; test: Downregulation of cyclin T1 protein expression in human MV4-11 cells incubated for 12 hrs by western blot analysis; type: functional, cell-based; conditions: dose 0.1-4 µM

SMILES: COc1cc(O)c2c(=O)cc(-c3ccc(N4CCN(C)CC4)cc3)oc2c1C1=CCN(C)CC1
- Activity [1]: Dose-Dependent Effect
- inhibition [2]: 6.2%
- viability at 2 µM [3]: 3.12%
- Stability [4]: Stable
- inhibition [5]: 4.8%
- IC50 [6]: 53 nM
- Activity [7]: 5%
- Activity [8]: 0.02%
- Activity [9]: 6%
- inhibition [10]: Dose-Dependent Effect
